According to patent publication US7615554B2, “Erastin and erastin binding proteins, and uses thereof” (Prolexys Pharmaceuticals, Inc., priority 2005, dated 2009):

Columns and labels:
[1] = system: BJ primary cells; assay: Calcein AM viability assay, BJ cells; assay type: cell-based, human; conditions: 16-point two-fold dilution
Description: (§1) Described here is work carried out to identify compounds with increased potency or activity in the presence of hTERT, LT, ST, E6, E7 or RAS^V12. Although the work described herein made use of hTERT, LT, ST, E6, E7 and RAS^V12 as transforming genes, future studies can make use of a wide variety of cancer-associated alleles using this methodology in order to define the signaling networks that involve many oncogenes and tumor suppressors. […] Cell viability was measured using the dye calcein acetoxymethyl ester (calcein AM) (Wang et al., 1993, Hum. Immunol. 37, 264-270), which is a non-fluorescent compound that freely diffuses into cells. […]
(§2) Calcein acetoxylmethyl ester (AM) is a cell membrane-permeable, non-fluorescent compound that is cleaved by intracellular esterases to form the anionic, cell-impermeable, fluorescent compound calcein. […] Total fluorescence intensity in each well was recorded on a Packard Fusion platereader, and converted to a percent inhibition of signal by subtracting the instrument background and dividing by the average signal obtained when cells were not treated with any compound. […]
(§3) Mean RFU (relative fluorescence units) for untreated cells was calculated by averaging columns 1, 2, and 23 (wells with cells but lacking compounds). The calcein background was calculated by averaging column 24 (wells with calcein, but lacking cells). […]

[2] = system: BJ-TERT/LT/ST cells; assay: Calcein AM viability assay, BJ-TERT/LT/ST cells; assay type: cell-based, human; conditions: 16-point two-fold dilution
Description: as §1, §2, §3

[3] = system: BJ-TERT/LT/ST/RAS^V12 tumorigenic cells; assay: Calcein AM viability assay, BJ-TERT/LT/ST/RAS^V12 cells; assay type: cell-based, human; conditions: BJ-TERT/LT/ST/Ras^v12; 16-point two-fold dilution
From the text: as §1, with “suppressors. Engineered cell lines with these genetic elements were used to screen 23,550 compounds, including 20,000 compounds from a combinatorial library, 1,990 compounds from the National Cancer Institute diversity collection, and 1,540 biologically active known compounds that were selected and purchased by Applicant and formatted into a screenable collection.” for “suppressors.”
as §2
as §3, with “cells). Percentage inhibition of each well was calculated as [1−(RFU−calcein control)/(untreated cell−calcein control)*100].” for “cells).”

[4] = system: BJ-TERT/LT/RAS^V12/ST cells; assay: Calcein AM viability assay, BJ-TERT/LT/RAS^V12/ST cells; assay type: cell-based, human; conditions: 16-point two-fold dilution
Description: as §1, §2, §3

[5] = system: TIP5-TERT cells; assay: Calcein AM viability assay, TIP5-TERT cells; assay type: cell-based, human; conditions: 16-point two-fold dilution
Description: as §1, §2, §3

[6] = system: TIP5-TERT/LT cells; assay: Calcein AM viability assay, TIP5-TERT/LT cells; assay type: cell-based, human; conditions: 16-point two-fold dilution
Description: as §1, §2, §3

[7] = system: TIP5-TERT/LT/ST/Ras^v12 cells; assay: Calcein AM viability assay, TIP5-TERT/LT/ST/Ras^v12 cells; assay type: cell-based, human; conditions: 16-point two-fold dilution
Description: as §1, §2, §3

[8] = system: TIP5-TERT/E6E7 cells; assay: Calcein AM viability assay, TIP5-TERT/E6E7 cells; assay type: cell-based, human; conditions: 16-point two-fold dilution
Description: as §1, §2, §3

[9] = system: TIP5-TERT/E6E7/ST cells; assay: Calcein AM viability assay, TIP5-TERT/E6E7/ST cells; assay type: cell-based, human; conditions: 16-point two-fold dilution
Description: as §1, §2, §3

[10] = system: TIP5-TERT/E6E7/ST/Ras^v12 cells; assay: Calcein AM viability assay, TIP5-TERT/E6E7/ST/Ras^v12 cells; assay type: cell-based, human; conditions: 16-point two-fold dilution
Description: as §1, §2, §3

[11] = system: engineered cell lines; assay: Selectivity across the engineered cell lines (calcein AM IC50 ratios); assay type: cell-based, human; conditions: from selectivity ratio for each subsequent pair of cell lines in a series
Description: To calculate this selectivity score between two cell lines, the IC50 for a compound in one cell line was divided by the IC50 for the same compound in a second cell line. […] The “tumor selectivity score” was calculated for each compound, by dividing the IC50 value for the compound in the parental, primary BJ cells by the IC50 value for the compound in engineered BJ-TERTALT/ST/RAS^V12 cells, containing all four genetic elements required to create tumorigenic cells (Table 1).
Applicants sought to determine the genetic basis of selectivity for each compound. That is, for each compound, they attempted to define the gene or combination of genes responsible for rendering cells sensitive to the compound (Table 1).
The IC50 in primary BJ cells was divided by the IC50 in BJ-TERT/LT/ST/RAS^V12 tumorigenic cells to obtain a tumor selectivity ratio for each compound. The compound selectivity for each genetic element was determined by calculating the selectivity ratio for each subsequent pair of cell lines in a series.

[12] = system: BJ-TERT/LT/ST/RAS^V12 cells; assay: Nuclear morphology assay; assay type: cell-based, human
From the text: Applicants sought to characterize the type of cell death induced by CPT and erastin in tumorigenic BJ-TERT/LT/ST/RAS^V12 cells. […] To determine whether erastin or CPT induces apoptosis in their system, Applicants monitored the nuclear morphology of CPT- and erastin-treated tumorigenic cells using fluorescence microscopy. […] Since nuclear morphological change is required of apoptotic cells, Applicants conclude that cell death induced by erastin is non-apoptotic. […] Additionally, nuclei remained intact in erastin-treated tumor cells (FIG. 9).
200,000 tumorigenic BJ-TERT/LT/ST/RAS^V12 cells were seeded in 2 mL on glass coverslips in each well of a six-well dish, treated with nothing (NT), 9 μM erastin or 1.1 μM camptothecin (CPT) in growth medium for 18 hours while incubating at 37° C. with 5% CO2. Nuclei were stained with 25 μg/mL Hoechst 33342 (Molecular Probes) and viewed using an oil immersion 100× objective on a fluorescence microscope.

[13] = system: BJ-TERT/LT/ST/RAS^V12 cells; assay: Western blot for active caspase-3; assay type: cell-based, human
Description: BJ-TERT/LT/ST/RAS^V12 cells were seeded prior to the experiment at 5×10^5 cells in 60 mm dishes. The cells were treated with 5 μg/ml erastin (9 μM) for 2, 4, 6, 8 or 10 hours. One dish was maintained for camptothecin treatment (0.4 μlg/ml for 24 h) as a positive control. Cells were lysed after each time point in lysis buffer (50 mM HEPES KOH pH 7.4, […], 2 mM EDTA, 0.5% Triton X-100, 1.5 mM Na3VO4, 50 mM NaF, 10 mM sodium pyrophosphate, 10 mM sodium beta-glycerophosphate and protease inhibitor tablet (Roche)). Protein content was quantified using a Biorad protein assay reagent. Equal amounts of protein were resolved on 16% SDS-polyacrylamide gel. The electrophoresed proteins were transblotted onto a PVDF membrane, blocked with 5% milk and incubated with anti-active caspase-3 polyclonal antibody (BD Pharmingen) at 1:1500 dilution overnight at 4° C. The membrane was then incubated in anti-rabbit-HRP (Santa Cruz Biotechnology) at 1:3000 dilution for 1 hour and developed with an enhanced chemiluminescence mixture (NEN life science, Renaissance). To test for equivalent loading in each lane, blots were stripped, blocked, and probed with an anti-eIF-4E antibody (BD Transduction laboratories) at 1:1000 dilution.

[14] = system: BJ primary cells; assay: Sensitization of BJ primary cells by co-treatment (calcein AM viability); assay type: cell-based, human
From the text: (A-C) Western blot of lysates from BJ, BJ-TERT, BJ-TERT/LT/ST, BJ-TERT/LT/ST/RAS^V12, BJ-TERT/LT/RAS^V12 and BJ-TERT/LT/RAS^V12/ST cells with an antibody directed against topoisomerase II (A) or TOPI (B, C). In panel (C), cells were transfected with a siRNA directed against TOPI, lamic A/C or with a control double strand DNA duplex of the same length (TOPI dsDNA). In each case, the blot was probed with an antibody against eIF-4E to identify differences in the amount of protein loaded. The relative amount is quantitated below each band. (D) A TOPI siRNA prevents cell death caused by camptothecin in engineered tumor cells. Cell number was determined after transfection with a siRNA directed against TOPI and treatment with the indicated concentrations of camptothecin. (E) Okadaic acid, an inhibitor of PP2A and other cellular phosphatases, sensitizes primary human cells to camptothecin. BJ primary cells were treated simultaneously with the indicated concentrations of both camptothecin and okadaic acid and the effect on calcein AM viability staining was determined. […] BJ primary cells were treated with the indicated concentrations of okadaic acid and the expression level of TOPI was determined by western blot. The relative amount is quantitated below each band.
The compounds in group (iii) are camptothecin (CPT) and a novel compound from a combinatorial library, which Applicants have named erastin, for eradicator of RAS and ST-expressing cells (FIG. 2). Efficient CPT-induced and erastin-induced cell death requires the presence of both ST and RAS^V12 (FIGS. 3 and 4 and Table 1). Although CPT and erastin have a similar genetic basis of selectivity, they have distinct mechanisms of action. CPT is partially active in cells lacking RB function (via expression of E7), whereas erastin is not, and CPT requires two days to cause death in BJ-TERT/LT/ST/RAS^V12 cells, while erastin is 100% effective within 18 hours (FIGS. 3 and 4). […]

[15] = system: TOP1; assay: Western blot for TOP1 expression in BJ primary cells; assay type: cell-based, human
From the text: (A-C) Western blot of lysates from BJ, BJ-TERT, BJ-TERT/LT/ST, BJ-TERT/LT/ST/RAS^V12, BJ-TERT/LT/RAS^V12 and BJ-TERT/LT/RAS^V12/ST cells with an antibody directed against topoisomerase II (A) or TOPI (B, C). In panel (C), cells were transfected with a siRNA directed against TOPI, lamic A/C or with a control double strand DNA duplex of the same length (TOPI dsDNA). In each case, the blot was probed with an antibody against eIF-4E to identify differences in the amount of protein loaded. The relative amount is quantitated below each band. (D) A TOPI siRNA prevents cell death caused by camptothecin in engineered tumor cells. Cell number was determined after transfection with a siRNA directed against TOPI and treatment with the indicated concentrations of camptothecin. (E) Okadaic acid, an inhibitor of PP2A and other cellular phosphatases, sensitizes primary human cells to camptothecin. BJ primary cells were treated simultaneously with the indicated concentrations of both camptothecin and okadaic acid and the effect on calcein AM viability staining was determined. […] BJ primary cells were treated with the indicated concentrations of okadaic acid and the expression level of TOPI was determined by western blot. The relative amount is quantitated below each band. […]

[16] = system: tumor cells versus normal cells; assay: Erastin analogs tested for activity and selectivity in tumor cells versus normal cells; assay type: cell-based
From the text: Applicants additionally tested 135 analogs of erastin for activity and selectivity in tumor cells versus normal cells. […] This compound was named erastin B (see FIG. 8). In certain embodiments of the invention, the invention relates to the compound, erastin.
Applicants additionally tested other analogs of erastin for activity and selectivity in tumor cells versus normal cells. […] This compound was named erastin B (see FIG. 8). BJELR cells are BJ-TERT/LT/ST/RAS^V12 cells, and BJEH are BJ-TERT cells.

## Cc1c2ccccc2c(CSC(=N)N)c2ccccc12.Cl [NSC146109]
[1]
  concentration required to achieve 50% inhibition of calcein AM staining (IC50): >5 µg/mL
[2]
  concentration required to achieve 50% inhibition of calcein AM staining (IC50): 2.5 µg/mL
[3]
  concentration required to achieve 50% inhibition of calcein AM staining (IC50): 2.5 µg/mL
[4]
  concentration required to achieve 50% inhibition of calcein AM staining (IC50): 2.5 µg/mL
[5]
  concentration required to achieve 50% inhibition of calcein AM staining (IC50): >5 µg/mL
[6]
  concentration required to achieve 50% inhibition of calcein AM staining (IC50): >5 µg/mL
[7]
  concentration required to achieve 50% inhibition of calcein AM staining (IC50): 2.5 µg/mL
[8]
  concentration required to achieve 50% inhibition of calcein AM staining (IC50): 2.5 µg/mL
[9]
  concentration required to achieve 50% inhibition of calcein AM staining (IC50): 2.5 µg/mL
[10]
  concentration required to achieve 50% inhibition of calcein AM staining (IC50): 2.5 µg/mL
[11]
  Genetic basis of Selectivity: non-specific

## CC[C@@]1(O)C(=O)OCc2c1cc1n(c2=O)Cc2cc3ccccc3nc2-1 [Camptothecin]
[11]
  Genetic basis of Selectivity: RAS^v12/PP2A/RB
[12]; 9 μM erastin or 1.1 μM camptothecin, 18 hours
  nuclear morphology by fluorescence microscopy: karyorhexis and margination of chromatin were clearly visible
[12]; BJ-TERT/LT/ST/RAS^V12 cells
  fragmented nuclei: 10-20 % of total nuclei
[13]
  cleaved, active caspase 3: appearance of cleaved, active caspase 3

## C=C1[C@@H](O)[C@@H]2O[C@]3(CC[C@H](/C=C/[C@@H](C)[C@@H]4CC(C)=C[C@@]5(O[C@H](C[C@@](C)(O)C(=O)O)CC[C@H]5O)O4)O3)CC[C@H]2O[C@@H]1[C@@H](O)C[C@H](C)[C@H]1O[C@@]2(CCCCO2)CC[C@H]1C [okadaic acid]
[14]; BJ (or BJ-TERT) cells, simultaneous treatment with camptothecin
  sensitization to camptothecin: renders BJ cells sensitive to camptothecin
[14]; BJ or BJ-TERT cells
  sensitization to erastin: does not render BJ or BJ-TERT cells sensitive to erastin
[15]
  expression level of TOP1 by western blot: stimulates expression of TOP1

## erastin B
[16]
  activity and selectivity of erastin analogs/derivatives: active and selective, but less potent than erastin
